Measured values as given in PubChem BioAssay AID1259407 (Chemical Carcinogenesis Research Information System (CCRIS), 2018).
Calls of active or inactive are those of the source. The rule behind the calls is not given here.

Tested on: CCRIS mutagenicity, Ames/micronucleus/aberration tests
Test: CCRIS mutagenicity studies
[1] = Test System: AMES SALMONELLA TYPHIMURIUM, Strain/Indicator: TA98, Metabolic Activation: NONE, Method: PREINCUBATION
[2] = Test System: AMES SALMONELLA TYPHIMURIUM, Strain/Indicator: TA98, Metabolic Activation: NONE, Method: STANDARD PLATE
[3] = Test System: AMES SALMONELLA TYPHIMURIUM, Strain/Indicator: TA100, Metabolic Activation: NONE, Method: PREINCUBATION
[4] = Test System: AMES SALMONELLA TYPHIMURIUM, Strain/Indicator: TA100, Metabolic Activation: NONE, Method: STANDARD PLATE
[5] = Test System: E. COLI, Strain/Indicator: WP2 UVRA, Metabolic Activation: NONE, Method: STANDARD PLATE
[6] = Test System: AMES SALMONELLA TYPHIMURIUM, Strain/Indicator: TA98, Metabolic Activation: RAT, LIVER, S-9, AROCLOR 1254, Method: PREINCUBATION
[7] = Test System: AMES SALMONELLA TYPHIMURIUM, Strain/Indicator: TA100, Metabolic Activation: RAT, LIVER, S-9, AROCLOR 1254, Method: PREINCUBATION

CCN(CC)CCCC(C)Nc1c2ccc(Cl)cc2nc2ccc(OC)cc12 (centres undefined)
mutagenic call (Test System: AMES SALMONELLA TYPHIMURIUM, Strain/Indicator: TA97, Metabolic Activation: HAMSTER, LIVER, S-9, AROCLOR 1254 (10%), Method: PREINCUBATION): active; positive | mutagenic call (Test System: AMES SALMONELLA TYPHIMURIUM, Strain/Indicator: TA97, Metabolic Activation: NONE, Method: PREINCUBATION): active; positive | mutagenic call (Test System: AMES SALMONELLA TYPHIMURIUM, Strain/Indicator: TA97, Metabolic Activation: RAT, LIVER, S-9, AROCLOR 1254 (10%), Method: PREINCUBATION): active; positive | mutagenic call (Test System: AMES SALMONELLA TYPHIMURIUM, Strain/Indicator: TA98, Metabolic Activation: HAMSTER, LIVER, S-9, AROCLOR 1254 (10%), Method: PREINCUBATION): active; positive | mutagenic call [1]: active; positive | mutagenic call [2]: inactive; negative | mutagenic call (Test System: AMES SALMONELLA TYPHIMURIUM, Strain/Indicator: TA98, Metabolic Activation: RAT LIVER S-9, AROCLOR 1254 (10%), Method: STANDARD PLATE): active; positive | mutagenic call (Test System: AMES SALMONELLA TYPHIMURIUM, Strain/Indicator: TA98, Metabolic Activation: RAT LIVER S-9, Method: STANDARD PLATE): active; positive | mutagenic call (Test System: AMES SALMONELLA TYPHIMURIUM, Strain/Indicator: TA98, Metabolic Activation: RAT, LIVER, S-9, AROCLOR 1254 (10%), Method: PREINCUBATION): active; positive | mutagenic call (Test System: AMES SALMONELLA TYPHIMURIUM, Strain/Indicator: TA100, Metabolic Activation: HAMSTER, LIVER, S-9, AROCLOR 1254 (10%), Method: PREINCUBATION): inactive; negative | mutagenic call [3]: inactive; negative | mutagenic call [4]: inactive; negative | mutagenic call (Test System: AMES SALMONELLA TYPHIMURIUM, Strain/Indicator: TA100, Metabolic Activation: RAT LIVER S-9, AROCLOR 1254 (10%), Method: STANDARD PLATE): inactive; negative | mutagenic call (Test System: AMES SALMONELLA TYPHIMURIUM, Strain/Indicator: TA100, Metabolic Activation: RAT LIVER S-9, Method: STANDARD PLATE): inactive; negative | mutagenic call (Test System: AMES SALMONELLA TYPHIMURIUM, Strain/Indicator: TA100, Metabolic Activation: RAT, LIVER, S-9, AROCLOR 1254 (10%), Method: PREINCUBATION): inactive; negative | mutagenic call (Test System: AMES SALMONELLA TYPHIMURIUM, Strain/Indicator: TA1535, Metabolic Activation: HAMSTER, LIVER, S-9, AROCLOR 1254 (10%), Method: PREINCUBATION): inactive; negative | mutagenic call (Test System: AMES SALMONELLA TYPHIMURIUM, Strain/Indicator: TA1535, Metabolic Activation: NONE, Method: PREINCUBATION): inactive; negative | mutagenic call (Test System: AMES SALMONELLA TYPHIMURIUM, Strain/Indicator: TA1535, Metabolic Activation: NONE, Method: STANDARD PLATE): inactive; negative | mutagenic call (Test System: AMES SALMONELLA TYPHIMURIUM, Strain/Indicator: TA1535, Metabolic Activation: RAT LIVER S-9, AROCLOR 1254 (10%), Method: STANDARD PLATE): inactive; negative | mutagenic call (Test System: AMES SALMONELLA TYPHIMURIUM, Strain/Indicator: TA1535, Metabolic Activation: RAT, LIVER, S-9, AROCLOR 1254 (10%), Method: PREINCUBATION): inactive; negative | mutagenic call (Test System: AMES SALMONELLA TYPHIMURIUM, Strain/Indicator: TA1537, Metabolic Activation: NONE, Method: STANDARD PLATE): active; positive | mutagenic call (Test System: AMES SALMONELLA TYPHIMURIUM, Strain/Indicator: TA1537, Metabolic Activation: RAT LIVER S-9, AROCLOR 1254 (10%), Method: STANDARD PLATE): active; positive | mutagenic call [5]: active; positive | mutagenic call (Test System: E. COLI, Strain/Indicator: WP2 UVRA, Metabolic Activation: RAT LIVER S-9, AROCLOR 1254 (10%), Method: STANDARD PLATE): inactive; negative | mutagenic call (Test System: MOUSE LYMPHOMA, Strain/Indicator: L5178Y(TK+/TK-), Metabolic Activation: NONE, Method: SUSPENSION/PLATE): active; positive | mutagenic call (Test System: MOUSE LYMPHOMA, Strain/Indicator: L5178Y(TK+/TK-), Metabolic Activation: RAT LIVER S-9, AROCLOR 1254 (25%), Method: SUSPENSION/PLATE): inactive; negative

COc1ccc2nc(N)[nH]c2c1
mutagenic call [6]: inactive; negative | mutagenic call [7]: inactive; negative

OCc1ccc2c(c1)-c1cccc3cccc-2c13
mutagenic call [2]: inactive; negative | mutagenic call [4]: active; positive

C[Si](C)(C)CN(N=O)C(N)=O
mutagenic call [3]: active; positive | mutagenic call (Test System: CHINESE HAMSTER V-79, Strain/Indicator: V-79/OUABAIN, Metabolic Activation: NONE): active; positive | mutagenic call (Test System: E. COLI, Strain/Indicator: H/R30R, Metabolic Activation: NONE, Method: PREINCUBATION): active; positive | mutagenic call (Test System: E. COLI, Strain/Indicator: HS30R UVRA, Metabolic Activation: NONE, Method: PREINCUBATION): active; positive | mutagenic call (Test System: E. COLI, Strain/Indicator: NG30 RECA, Metabolic Activation: NONE, Method: PREINCUBATION): active; positive | mutagenic call (Test System: E. COLI, Strain/Indicator: O16 POLA, Metabolic Activation: NONE, Method: PREINCUBATION): active; positive

O=c1cc(CO)occ1O
mutagenic call (End Point: IN VIVO MICRONUCLEUS, Test System: HEPATOCYTES, Species: RAT, Strain/Sex: FISHER 344 OR SD/MALE, Route: ORAL OR IP): inactive; negative | mutagenic call (End Point: IN VIVO MICRONUCLEUS, Test System: PERIPHERAL BLOOD RETICULOCYTES, Species: RAT, Strain/Sex: FISHER 344 OR SD/MALE, Route: ORAL OR IP): active; positive | mutagenic call (End Point: In vivo micronucleus, Test System: Mononucleated hepatocytes/1000 hepatocytes, Species: Mouse, Strain/Sex: Ddy/Male, Route: Oral): active; positive (dose related increase, significant only at high dose) | mutagenic call (End Point: In vivo micronucleus, Test System: Mononucleated hepatocytes/1000 hepatocytes, Species: Rat, Strain/Sex: F344/Male, Route: Oral): active; positive (dose related increase, significant only at high dose) | mutagenic call [1]: active; positive | mutagenic call [2]: active; positive | mutagenic call [6]: active; positive | mutagenic call (Test System: AMES SALMONELLA TYPHIMURIUM, Strain/Indicator: TA98, Metabolic Activation: RAT, LIVER, S-9, AROCLOR 1254, Method: STANDARD PLATE): active; positive | mutagenic call [4]: active; positive | mutagenic call (Test System: AMES SALMONELLA TYPHIMURIUM, Strain/Indicator: TA100, Metabolic Activation: RAT, LIVER, MICROSOMES, PHENOBARBITAL, Method: STANDARD PLATE): active; positive | mutagenic call [7]: inactive; negative | mutagenic call (Test System: AMES SALMONELLA TYPHIMURIUM, Strain/Indicator: TA100, Metabolic Activation: RAT, LIVER, S-9, AROCLOR 1254, Method: STANDARD PLATE): active; positive | mutagenic call (Test System: AMES SALMONELLA TYPHIMURIUM, Strain/Indicator: TA100, Metabolic Activation: RAT, LIVER, S-9, PHENOBARBITAL, Method: PREINCUBATION): inactive; negative | mutagenic call (Test System: Ames Salmonella typhimurium, Strain/Indicator: TA100, Metabolic Activation: None, Method: Preincubation): active; positive | mutagenic call (Test System: Ames Salmonella typhimurium, Strain/Indicator: TA100, Metabolic Activation: Rat, Liver, S-9, Phenobarbital and 6-naphthoflavone, Method: Preincubation): active; positive

Cc1ccc(S(=O)(=O)OC[C@@H]2CO2)cc1
mutagenic call [3]: active; positive | mutagenic call [4]: active; positive | mutagenic call (Test System: AMES SALMONELLA TYPHIMURIUM, Strain/Indicator: TA100, Metabolic Activation: RAT, LIVER, S-9, PCB, Method: PREINCUBATION): active; positive

NNCCO
mutagenic call (Test System: E. COLI, Strain/Indicator: WP2, Metabolic Activation: NONE, Method: STANDARD PLATE): active; positive | mutagenic call (Test System: E. COLI, Strain/Indicator: WP2, Metabolic Activation: RAT, LIVER, Method: STANDARD PLATE): active; positive | mutagenic call (Test System: E. COLI, Strain/Indicator: WP2HCR, Metabolic Activation: NONE, Method: STANDARD PLATE): active; positive | mutagenic call (Test System: E. COLI, Strain/Indicator: WP2HCR, Metabolic Activation: S-9 MIX, Method: STANDARD PLATE): active; positive | mutagenic call [5]: active; positive
